Target: histidine-tagged recombinant human TrkA, cytoplasmic domain (Homo sapiens (Human), UniProt P04629)
Experiment: TrkA ELISA Assay
Type: biochemical
Conditions: 2.5 nM TrkA, 500 μM ATP, 25 minutes; read-out: TrkA Elisa Enzyme IC50
Outline: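 IC50 derived by 4- or 5-parameter logistic fit of A450 signal from HRP-conjugated PY20 anti-phosphotyrosine with TMB. Reaction: poly(Glu,Ala,Tyr)-coated wells, 2.5 nM kinase, 500 μM ATP, MOPS pH 7.5 buffer with MgCl2, 25 min, ambient temperature.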

histidine-tagged recombinant human TrkA, cytoplasmic domain, sequence (P04629 440-796): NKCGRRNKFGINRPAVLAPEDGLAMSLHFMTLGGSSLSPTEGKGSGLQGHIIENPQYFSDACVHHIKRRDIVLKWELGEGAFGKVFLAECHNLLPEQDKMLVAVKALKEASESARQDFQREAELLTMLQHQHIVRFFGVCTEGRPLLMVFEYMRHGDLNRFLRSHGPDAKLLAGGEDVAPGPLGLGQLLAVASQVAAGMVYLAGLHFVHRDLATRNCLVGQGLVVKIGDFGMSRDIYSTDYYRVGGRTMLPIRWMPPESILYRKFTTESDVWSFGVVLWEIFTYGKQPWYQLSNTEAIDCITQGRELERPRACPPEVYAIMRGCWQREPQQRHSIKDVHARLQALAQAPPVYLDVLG

SMILES	IC50 [nM]
Cc1ccc(C(=O)Nc2cnn3ccc(N4CCC[C@@H]4c4cccc(F)c4)nc23)cn1 [Example 78, (R)—N-(5-(2-(3-fluorophenyl)pyrrolidin-1-yl)pyrazolo[1,5-a]pyrimidin-3-yl)-6-methylnicotinamide]	47
COc1ncccc1C(=O)Nc1cnn2ccc(N3CCC[C@@H]3c3cccc(F)c3)nc12 [Example 79, (R)—N-(5-(2-(3-fluorophenyl)pyrrolidin-1-yl)pyrazolo[1,5-a]pyrimidin-3-yl)-2-methoxynicotinamide]	5.7
Cc1cnccc1C(=O)Nc1cnn2ccc(N3CCC[C@@H]3c3cccc(F)c3)nc12 [Example 80, (R)—N-(5-(2-(3-fluorophenyl)pyrrolidin-1-yl)pyrazolo[1,5-a]pyrimidin-3-yl)-3-methylisonicotinamide]	320
O=C(Nc1cnn2ccc(N3CCC[C@@H]3c3cc(F)ccc3Cl)nc12)N1CC[C@H](O)C1 [Example 81, (S)—N-(5-((R)-2-(2-chloro-5-fluorophenyl)pyrrolidin-1-yl)pyrazolo[1,5-a]pyrimidin-3-yl)-3-hydroxypyrrolidine-1-carboxamide]	8
Cc1cnc(C(=O)Nc2cnn3ccc(N4CCC[C@@H]4c4cccc(F)c4)nc23)cn1 [Example 82, (R)—N-(5-(2-(3-fluorophenyl)pyrrolidin-1-yl)pyrazolo[1,5-a]pyrimidin-3-yl)-5-methylpyrazine-2-carboxamide]	6.6
Cn1ccnc1C(=O)Nc1cnn2ccc(N3CCC[C@@H]3c3cccc(F)c3)nc12 [Example 83, (R)—N-(5-(2-(3-fluorophenyl)pyrrolidin-1-yl)pyrazolo[1,5-a]pyrimidin-3-yl)-1-methyl-1H-imidazole-2-carboxamide]	35.4
O=C(Nc1cnn2ccc(N3CCC[C@@H]3c3cc(F)ccc3C(F)(F)F)nc12)N1CC[C@H](O)C1 [Example 84, (S)—N-(5-((R)-2-(5-fluoro-2-(trifluoromethyl)phenyl)pyrrolidin-1-yl)pyrazolo[1,5-a]pyrimidin-3-yl)-3-hydroxypyrrolidine-1-carboxamide]	3.2
O=C(Nc1cnn2ccc(N3CCC[C@@H]3c3cc(F)ccc3C(F)(F)F)nc12)N1CC[C@@H](O)C1 [Example 85, (R)—N-(5-((R)-2-(5-fluoro-2-(trifluoromethyl)phenyl)pyrrolidin-1-yl)pyrazolo[1,5-a]pyrimidin-3-yl)-3-hydroxypyrrolidine-1-carboxamide]	5.7
O=C(Nc1cnn2ccc(N3CCC[C@@H]3c3cc(F)ccc3C(F)(F)F)nc12)N1CCC[C@@H](O)C1 [Example 86, (R)—N-(5-((R)-2-(5-fluoro-2-(trifluoromethyl)phenyl)pyrrolidin-1-yl)pyrazolo[1,5-a]pyrimidin-3-yl)-3-hydroxypiperidine-1-carboxamide]	14
O=C(Nc1cnn2ccc(N3CCC[C@@H]3c3cc(F)ccc3C(F)(F)F)nc12)N1CCC[C@H](O)C1 [Example 87, (S)—N-(5-((R)-2-(5-fluoro-2-(trifluoromethyl)phenyl)pyrrolidin-1-yl)pyrazolo[1,5-a]pyrimidin-3-yl)-3-hydroxypiperidine-1-carboxamide]	14.6
O=C(Nc1cnn2ccc(N3CCC[C@@H]3c3cncc(F)c3)nc12)N1CC[C@H](O)C1 [Example 88, (S)—N-(5-((R)-2-(5-fluoropyridin-3-yl)pyrrolidin-1-yl)pyrazolo[1,5-a]pyrimidin-3-yl)-3-hydroxypyrrolidine-1-carboxamide]	156
O=C(Nc1cnn2ccc(N3CCC[C@@H]3c3cncc(F)c3)nc12)N1CC[C@@H](O)C1 [Example 89, (R)—N-(5-((R)-2-(5-fluoropyridin-3-yl)pyrrolidin-1-yl)pyrazolo[1,5-a]pyrimidin-3-yl)-3-hydroxypyrrolidine-1-carboxamide]	896
COc1ccc(F)cc1[C@H]1CCCN1c1ccn2ncc(NC(=O)N3CC[C@H](O)C3)c2n1 [Example 90, (S)—N-(5-((R)-2-(5-fluoro-2-methoxyphenyl)pyrrolidin-1-yl)pyrazolo[1,5-a]pyrimidin-3-yl)-3-hydroxypyrrolidine-1-carboxamide]	11.3
COc1ccc(F)cc1[C@H]1CCCN1c1ccn2ncc(NC(=O)N3CCC[C@H](O)C3)c2n1 [Example 91, (S)—N-(5-((R)-2-(5-fluoro-2-methoxyphenyl)pyrrolidin-1-yl)pyrazolo[1,5-a]pyrimidin-3-yl)-3-hydroxypiperidine-1-carboxamide]	10.2
O=C(Nc1cnn2ccc(N3CCC[C@@H]3c3cc(F)ccc3F)nc12)N1C[C@@H]2C[C@H]1CO2 [Example 92, (1S,4S)—N-(5-((R)-2-(2,5-difluorophenyl)pyrrolidin-1-yl)pyrazolo[1,5-a]pyrimidin-3-yl)-2-oxa-5-azabicyclo[2.2.1]heptane-5-carboxamide]	107
O=C(Nc1cnn2ccc(N3CCC[C@@H]3c3cc(F)ccc3F)nc12)[C@H]1CC[C@@H](O)C1 [Example 94, (1S,3R)—N-(5-((R)-2-(2,5-difluorophenyl)pyrrolidin-1-yl)pyrazolo[1,5-a]pyrimidin-3-yl)-3-hydroxycyclopentanecarboxamide]	20.3
O=C(Nc1cnn2ccc(N3CCC[C@@H]3c3cc(F)ccc3F)nc12)[C@H]1CC[C@H](O)C1 [Example 95, (1S,3S)—N-(5-((R)-2-(2,5-difluorophenyl)pyrrolidin-1-yl)pyrazolo[1,5-a]pyrimidin-3-yl)-3-hydroxycyclopentanecarboxamide]	42.5
O=C(Nc1cnn2ccc(N3CCC[C@@H]3c3cc(F)ccc3F)nc12)C1CC(O)C1 (stereo partly drawn) [Example 96, (R)—N-(5-(2-(2,5-difluorophenyl)pyrrolidin-1-yl)pyrazolo[1,5-a]pyrimidin-3-yl)-3-hydroxycyclobutanecarboxamide]	27.4
CN(C)C(=O)C(=O)Nc1cnn2ccc(N3CCC[C@@H]3c3cc(F)ccc3F)nc12 [Example 97, (R)—N^1-(5-(2-(2,5-difluorophenyl)pyrrolidin-1-yl)pyrazolo[1,5-a]pyrimidin-3-yl)-N^2,N^2-dimethyloxalamide]	47.5
CNC(=O)C(=O)Nc1cnn2ccc(N3CCC[C@@H]3c3cc(F)ccc3F)nc12 [Example 98, (R)—N^1-(5-(2-(2,5-difluorophenyl)pyrrolidin-1-yl)pyrazolo[1,5-a]pyrimidin-3-yl)-N^2-methyloxalamide]	7.65
NC(=O)C(=O)Nc1cnn2ccc(N3CCC[C@@H]3c3cc(F)ccc3F)nc12 [Example 99, (R)—N^1-(5-(2-(2,5-difluorophenyl)pyrrolidin-1-yl)pyrazolo[1,5-a]pyrimidin-3-yl)oxalamide]	4.65
O=C(Nc1cnn2ccc(N3CCC[C@@H]3c3cc(F)ccc3F)nc12)C(=O)NC1CC1 [Example 100, (R)—N^1-cyclopropyl-N2-(5-(2-(2,5-difluorophenyl)pyrrolidin-1-yl)pyrazolo[1,5-a]pyrimidin-3-yl)oxalamide]	15.8
O=C(Nc1cnn2ccc(N3CCC[C@@H]3c3cc(F)ccc3F)nc12)C(=O)N1CC(O)C1 [Example 101, (R)—N-(5-(2-(2,5-difluorophenyl)pyrrolidin-1-yl)pyrazolo[1,5-a]pyrimidin-3-yl)-2-(3-hydroxyazetidin-1-yl)-2-oxo acetamide]	10.1
O=C(Nc1cnn2ccc(N3CCC[C@@H]3c3cc(F)ccc3F)nc12)C(=O)N1CC[C@H](O)C1 [Example 102, N-(5-((R)-2-(2,5-difluorophenyl)pyrrolidin-1-yl)pyrazolo[1,5-a]pyrimidin-3-yl)-2-((S)-3-hydroxypyrrolidin-1-yl)-2-oxoacetamide]	12.8
O=C(Nc1cnn2ccc(N3CCC[C@@H]3c3cc(F)ccc3F)nc12)C(=O)N1CCOCC1 [Example 103, (R)—N-(5-(2-(2,5-difluorophenyl)pyrrolidin-1-yl)pyrazolo[1,5-a]pyrimidin-3-yl)-2-morpholino-2-oxoacetamide]	82.4
COC(=O)C(=O)Nc1cnn2ccc(N3CCC[C@@H]3c3cc(F)ccc3F)nc12 [Example 104, (R)-methyl 2-(5-(2-(2,5-difluorophenyl)pyrrolidin-1-yl)pyrazolo[1,5-a]pyrimidin-3-ylamino)-2-oxoacetate]	7.65
O=C(O)C(=O)Nc1cnn2ccc(N3CCC[C@@H]3c3cc(F)ccc3F)nc12 [Example 105, (R)-2-(5-(2-(2,5-difluorophenyl)pyrrolidin-1-yl)pyrazolo[1,5-a]pyrimidin-3-ylamino)-2-oxoacetic acid]	4.7

Reference: patent publication US8865698B2, “Method of treatment using substituted pyrazolo[1,5-a]pyrimidine compounds” (Array BioPharma Inc., priority 2008, dated 2014)
